Experimental data taken from US11613525B2 (CTXT PTY LIMITED, priority 2018, dated 2023).
Like-named read-outs stand apart in the source and are kept apart here.

Tests used:
human STING (HAQ) [1] = molecular target: T1, human STING (HAQ) (Homo sapiens, UniProt Q86WV6, G230A/H232R/R293Q); test: biochemical; assay type: binding
huSTING (WT) [2] = molecular target: T2, huSTING (WT) (Homo sapiens (Human), UniProt Q86WV6, H232R); test: Differential scanning fluorimetry (DSF), huSTING (WT); assay type: binding; details: read-out: DSF huSTING (WT) ΔTm (° C.)
Target sequence in this assay (Q86WV6 other isoform, or with tags, fused parts or gaps, stated change not applied): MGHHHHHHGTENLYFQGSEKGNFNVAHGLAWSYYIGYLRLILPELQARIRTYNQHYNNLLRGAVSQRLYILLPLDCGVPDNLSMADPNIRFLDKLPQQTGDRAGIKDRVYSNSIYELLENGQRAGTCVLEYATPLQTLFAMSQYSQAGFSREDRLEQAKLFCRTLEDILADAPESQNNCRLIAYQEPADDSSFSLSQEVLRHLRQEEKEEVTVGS

huSTING (HAQ) = huSTING (HAQ) (Homo sapiens (Human), UniProt Q86WV6, G230A/H232R/R293Q/R71H); test: THP-1 reporter cell line assay, THP-1 STING Lucia ISG cells; assay type: cell-based; details: THP-1 STING Lucia ISG cells, read-out: Cellular EC50 huSTING (HAQ)
huSTING (WT) [3] = molecular target: T2, huSTING (WT); test: THP-1 reporter cell line assay, THP-1-Dual KI-hSTING-R232 cells; assay type: cell-based; details: read-out: Cellular EC50 huSTING (WT)
Target sequence in this assay (Q86WV6 whole entry H232R): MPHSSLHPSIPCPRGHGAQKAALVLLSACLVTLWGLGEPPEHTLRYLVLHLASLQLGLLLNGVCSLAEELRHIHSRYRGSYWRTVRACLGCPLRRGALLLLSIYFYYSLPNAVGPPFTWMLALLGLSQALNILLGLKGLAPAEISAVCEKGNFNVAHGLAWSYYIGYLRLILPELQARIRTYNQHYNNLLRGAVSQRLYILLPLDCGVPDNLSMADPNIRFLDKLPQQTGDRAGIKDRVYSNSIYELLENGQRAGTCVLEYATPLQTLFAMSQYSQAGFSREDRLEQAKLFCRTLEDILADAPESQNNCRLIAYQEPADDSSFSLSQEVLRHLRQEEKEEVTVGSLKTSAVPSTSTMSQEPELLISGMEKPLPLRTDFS

human STING (HAQ) [4] = molecular target: T1, human STING (HAQ); details: read-out: SPR (HAQ) KD; 25° C.
human STING (HAQ) [5] = molecular target: T1, human STING (HAQ); test: SPR (HAQ) 8° C.; assay type: binding; details: 50% occupancy as surrogate KD, read-out: SPR huSTING (HAQ) KD at 8° C.
Excerpt: (§1) Binding interactions of ligands with STING proteins were quantified using Surface Plasmon Resonance (SPR) with a minimally biotinylated STING protein immobilized on Streptavidin chip surface.
(§2) These were modified for compounds with longer residence times, so that curves could reach steady-state, or so that compound would be fully dissociated before the subsequent injection.
(§3) For single-cycle kinetic experiments, sensorgrams were fit to a two-step kinetic model in which two analyte molecules bind sequentially (Biacore T200 or S200 Evaluation Software).

huSTING (WT) [6] = molecular target: T2, huSTING (WT); test: SPR (WT) 8° C.; assay type: binding; details: read-out: SPR huSTING (WT) KD at 8° C.
Excerpt: as §1, §2, §3
Target sequence in this assay (Q86WV6 other isoform, or with tags, fused parts or gaps, stated change not applied): as the sequence (Q86WV6 other isoform, or with tags, fused parts or gaps, stated change not applied) above

[7] = compound 100 μM, protein concentration 2 μM
[8] = modified method, top concentration 40 μM, pin tool, EnVision

T1 sequence (Q86WV6 whole entry G230A/H232R/R293Q, looked up): as the sequence (Q86WV6 whole entry H232R) above, with G230A, R293Q counted along it
Chain of huSTING (HAQ) (Q86WV6 whole entry R71H/G230A/H232R/R293Q): as the sequence (Q86WV6 whole entry H232R) above, with R71H, G230A, R293Q counted along it

Structure (SMILES)	DSF huSTING (HAQ) ΔTm (° C.) (human STING (HAQ) [1]; 1 μM protein, compound at 100 μM) [°C]	ΔTm at 100 µM (huSTING (WT) [2]) [°C]	EC50 (huSTING (HAQ); 24 h, top concentration 50 μM) [µM]	EC50 (huSTING (WT) [3]) [µM]	Kd (human STING (HAQ) [4]) [µM]	DSF huSTING (HAQ) ΔTm (° C.) (human STING (HAQ) [1]; [7]) [°C]	Kd (human STING (HAQ) [5]) [µM]	Kd (huSTING (WT) [6]) [µM]	EC50 (huSTING (HAQ); [8]) [µM]
NC(=O)c1ccc(CCc2c(C(=O)O)sc3cccc(F)c23)cc1 [Example 88, 3-(4-Carbamoylphenethyl)-4-fluorobenzo[b]thiophene-2-carboxylic acid]	0.97	-1.07	> 50	> 50	533				
COc1ncnc2sc(C(=O)O)c(COc3c(F)cc(C(N)=O)cc3F)c12 [Example 109, 5-((4-Carbamoyl-2,6-difluorophenoxy)methyl)-4-methoxythieno[2,3-d]pyrimidine-6-carboxylic acid]				> 40		8.60	160	200	> 40
COCc1cc(OCc2c(C(=O)O)sc3cccc(Cl)c23)ccc1C(N)=O [Example 113, 3-((4-Carbamoyl-3-(methoxymethyl)phenoxy)methyl)-4-chlorobenzo[b]thiophene-2-carboxylic acid]				> 40		5.60	52		> 40
NC(=O)c1cc(F)c(OCc2c(C(=O)O)sc3cncc(Cl)c23)c(F)c1 [Example 171, Lithium 3-((4-carbamoyl-2,6-difluorophenoxy)methyl)-4-chlorothieno[2,3-c]pyridine-2-carboxylate]				> 40		9.33	4.87		> 40
COc1nccc2sc(C(=O)O)c(COc3c(F)cc(C(N)=O)cc3CO)c12 [Example 172, 3-((4-Carbamoyl-2-fluoro-6-(hydroxymethyl)phenoxy)methyl)-4-methoxythieno[3,2-c]pyridine-2-carboxylic acid]				> 40		0.56	220		> 40
